Source: patent US11458203B2, “Pharmaceutical compositions comprising caffeic acid chelates” (Arizona Board of Regents, on behald of Arizona State …, priority 2017, dated 2022)
Where two headings read alike, the source gives them in different places.

Experiments:
HSV1 = HSV1 plaque formation assay in Vero cells; assay type: cell-based; details: for IC50: read-out: HSV1 IC50; for antiviral activity of the substance by itself (in words): component alone, not combined
Rhinovirus 14 = assay type: cell-based
[1] = tested on: vaccinia virus (Copenhagen strain); assay type: cell-based; details: FIG. 6
[2] = tested on: vesicular stomatitis virus (VSV); assay type: cell-based; details: FIG. 6
VSV-Ebola pseudotype = assay type: cell-based, VSV-Ebola pseudotype (Zaire Ebola virus glycoprotein)
reovirus type 3 = assay type: cell-based
Vero cells = details: African green monkey, 24 h, 27000 μM
HSV2 = HSV2 plaque formation assay in Vero cells; assay type: cell-based; details: FIG. 6
Protocol: The antiviral assays were conducted as follows. For HSV1 and HSV2, Vero cells were grown in Dulbecco's minimal essential media containing 10% heat inactivated fetal bovine serum and antibiotic/antimycotic (ThermoFisher) in a 37° C., 5% CO2 incubator. Cells were seeded in standard 6-well tissue culture dishes. HSV1 virus was diluted to 100 plaque forming units/100 μL complete media. The virus samples were treated for 15 minutes with the indicated concentrations of the test compound/material. These treated viral samples were used to infect the confluent Vero cell monolayers. Cells were infected for 1 hour at 37° C. with occasional rocking. After 1 hour, 2 mLs of complete media was added to each well. The test compound was added to the media at the indicated concentration. The dishes were placed in the incubator for 3 days. After 3 days, the media was removed and the cells stained with 0.5% crystal violet. The number of plaques present were counted by hand and graphed as a percent relative to untreated samples.

Zika virus = assay type: cell-based; details: at the concentrations tested
[3] = test compound paired with Fe^3+, FIG. 7 and FIG. 8
[4] = Human alphaherpesvirus 1, Vero, test compound paired with Fe^3+, single dose-response trial, minimum three concentrations, FIG. 7 and FIG. 8

chicoric acid
anti-HSV1 activity relative to caffeic acid, molar basis (HSV1; paired with Fe^3+, FIG. 8): a little over triple that of caffeic acid
IC50 (HSV1; test compound paired with Fe^3+, single dose-response trial, minimum three concentrations, FIG. 7 and FIG. 8): 17.4 µM

CC(Cc1ccc(O)c(O)c1)C(C)Cc1ccc(O)c(O)c1 (stereo not drawn) [Nordihydroguaiaretic acid]
anti-HSV1 activity at highest concentration tested (HSV1; combined with iron(III), at 330 μM, FIG. 8): no activity
anti-HSV1 activity (in words) (HSV1; [3]): low activity
anti-HSV1 activity (in words) (HSV1; test compound paired with Fe^3+, FIG. 7 and FIG. 8, listed as nordihydroguaiaretic acid): no anti-HSV1 activity

O=C(O)C(O)Cc1ccc(O)c(O)c1 (stereo not drawn) [Danshensu, 3-(3,4-dihydroxyphenyl)-2-hydroxypropanoic acid]
IC50 (HSV1; Human alphaherpesvirus 1, Vero): 47.1 µM

O=C(/C=C/c1ccc(O)c(O)c1)O[C@H](Cc1ccc(O)c(O)c1)C(=O)O [rosmarinic acid]
IC50 (HSV1; [4]): 101 µM

NCCc1ccc(O)c(O)c1 [dopamine]
anti-HSV1 activity (in words) (HSV1; [3]): low activity

O=C(O)Cc1ccc(O)c(O)c1 [3,4-dihydroxylphenylacetic acid]
IC50 (HSV1; [4]): 101 µM

Oc1ccccc1O [catechol]
anti-HSV1 activity (in words) (HSV1; [3]): low activity

[Cl][Fe]([Cl])[Cl] [iron(III), iron(III) chloride]
antiviral activity of the substance by itself (in words) (HSV1): no antiviral properties
antiviral activity of the substance by itself (in words) (HSV1; listed as Iron(III)): no detectable antiviral activity

O=S(=O)(O)c1cc(O)c(O)c(S(=O)(=O)O)c1 [Tiron]
anti-HSV1 activity (in words) (HSV1; [3]): low activity

O=C(O)C=Cc1ccc(O)c(O)c1 [caffeic acid, 3,4-dihydroxycinnamic acid]
effect on Rhinovirus (in words) (Rhinovirus 14): unaffected
EC50 (HSV1; Human alphaherpesvirus 1, Vero, FIG. 1, inorganic ions added at half molar ratio to caffeic acid (2:1 organic:inorganic), caffeic acid alone = average of two separate tests, read-out: HSV1 EC50 (inhibition of plaque formation)): 18600 µM
IC50 (HSV1; [4]): 66.7 µM
antiviral activity of the substance by itself (in words) (HSV1): weak antiviral properties
antiviral activity of the substance by itself (in words) (HSV1; listed as Caffeic acid): minimal effect
effect on vaccinia virus (in words) [1]: minimal effect
effect on wild type VSV (in words) [2]: minimal effect
effect on VSV-Ebola pseudotype (in words) (VSV-Ebola pseudotype): minimal effect
effect on Reovirus (in words) (reovirus type 3): unaffected
cell viability (Vero cells): ≥ 90%
effect on HSV2 (in words) (HSV2): minimal effect
effect on Zika virus (in words) (Zika virus): unaffected

caffeic acid+sulfate
anti-HSV1 activity compared with caffeic acid alone (HSV1; FIG. 1, ion at half molar ratio to caffeic acid): no increased activity over caffeic acid alone

O=C(O)C=Cc1ccc(O)cc1O [2,4-dihydroxycinnamic acid]
anti-HSV1 activity (in words) (HSV1; [3]): inactivity

O=C(O)c1ccc(O)c(O)c1 [3,4-dihydroxybenzoic acid]
anti-HSV1 activity (in words) (HSV1; [3]): low activity

copper(II)
inhibition of plaque formation (HSV1; inorganic ions in the absence of caffeic acid, 83 μM (highest dose tested), FIG. 2 and FIG. 3): 38%

Nc1nc2c(ncn2COCCO)c(=O)[nH]1 [acyclovir]
activity relative to the caffeic acid and iron chelates (HSV1; positive control, FIG. 1 trial): about 20 fold
